Laboratory results as given in ChEMBL document CHEMBL1201862, “PubChem BioAssay data set” (2004).
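Step 1: Grow cells in 96-well plates. Step 2: Expose to compound for 48 hours at 5 concentrations. Step 3: Interpolate endpoints linearly; if unreached, use highest concentration. Abbreviation: GI50, concentration required for 50% inhibition of growth.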 Active and inactive are the calls of the source. No stated cut-off is given here; in the data, active = GI50 up to about 1.1 µM and inactive = higher.

Experiments:
Experiment in all cases: NCI anticancer screen, dose series, 48 h
A498 = test system: A498
PC-3 = test system: PC-3
HOP-92 = test system: HOP-92
SK-OV-3 = test system: SK-OV-3
ACHN = test system: ACHN
NCI/ADR-RES = test system: NCI/ADR-RES
NCI-H522 = test system: NCI-H522
NCI-H226 = test system: NCI-H226
K562 = test system: K562
MCF7 = test system: MCF7
MOLT-4 = test system: MOLT-4
NCI-H460 = test system: NCI-H460
SK-MEL-28 = test system: SK-MEL-28
SNB-19 = test system: SNB-19
OVCAR-5 = test system: OVCAR-5
HCT-116 = test system: HCT-116
UACC-62 = test system: UACC-62
SK-MEL-5 = test system: SK-MEL-5
T47D = test system: T47D
CCRF-CEM = test system: CCRF-CEM
MDA-MB-231 = test system: MDA-MB-231
Malme-3M = test system: Malme-3M
786-0 = test system: 786-0
DU-145 = test system: DU-145
RXF 393 = test system: RXF 393
COLO 205 = test system: COLO 205
CAKI-1 = test system: CAKI-1
A549 = test system: A549
SW-620 = test system: SW-620
SF-268 = test system: SF-268
HOP-62 = test system: HOP-62
U-251 = test system: U-251
SF-539 = test system: SF-539
SR = test system: SR
SNB-75 = test system: SNB-75
OVCAR-8 = test system: OVCAR-8
UO-31 = test system: UO-31
HCC 2998 = test system: HCC 2998
EKVX = test system: EKVX
LOX IMVI = test system: LOX IMVI
KM12 = test system: KM12
SK-MEL-2 = test system: SK-MEL-2
IGROV-1 = test system: IGROV-1
HCT-15 = test system: HCT-15
BT-549 = test system: BT-549
UACC-257 = test system: UACC-257
RPMI-8226 = test system: RPMI-8226
OVCAR-4 = test system: OVCAR-4
M14 = test system: M14
SF-295 = test system: SF-295
MDA-MB-435 = test system: MDA-MB-435
OVCAR-3 = test system: OVCAR-3
TK-10 = test system: TK-10
HT-29 = test system: HT-29
NCI-H23 = test system: NCI-H23
SN12C = test system: SN12C
MDA-N = test system: MDA-N

CC(=O)CC1(CBr)Nc2ccc([N+](=O)[O-])cc2NC1=O (configuration not stated)
GI50 (A498): > 100 µM (inactive)
GI50 (PC-3): 60.4 µM (inactive)
GI50 (HOP-92): 59.6 µM (inactive)
GI50 (SK-OV-3): > 100 µM (inactive)
GI50 (ACHN): > 100 µM (inactive)
GI50 (NCI/ADR-RES): > 100 µM (inactive)
GI50 (NCI-H522): 18.5 µM (inactive)
GI50 (NCI-H226): > 100 µM (inactive)
GI50 (K562): 83.8 µM (inactive)
GI50 (MCF7): 40.9 µM (inactive)
GI50 (MOLT-4): 42.9 µM (inactive)
GI50 (NCI-H460): > 100 µM (inactive)
GI50 (SK-MEL-28): 97.7 µM (inactive)
GI50 (SNB-19): > 100 µM (inactive)
GI50 (OVCAR-5): > 100 µM (inactive)
GI50 (HCT-116): 31.8 µM (inactive)
GI50 (UACC-62): > 100 µM (inactive)
GI50 (SK-MEL-5): > 100 µM (inactive)
GI50 (T47D): 42.9 µM (inactive)
GI50 (CCRF-CEM): 45.2 µM (inactive)
GI50 (MDA-MB-231): > 100 µM (inactive)
GI50 (Malme-3M): 92.3 µM (inactive)
GI50 (786-0): 31.2 µM (inactive)
GI50 (DU-145): 42.1 µM (inactive)
GI50 (RXF 393): 32.7 µM (inactive)
GI50 (COLO 205): > 100 µM (inactive)
GI50 (CAKI-1): > 100 µM (inactive)
GI50 (A549): > 100 µM (inactive)
GI50 (SW-620): 28.7 µM (inactive)
GI50 (SF-268): > 100 µM (inactive)
GI50 (HOP-62): 83.2 µM (inactive)
GI50 (U-251): > 100 µM (inactive)
GI50 (SF-539): 44.1 µM (inactive)
GI50 (SR): 34 µM (inactive)
GI50 (SNB-75): > 100 µM (inactive)
GI50 (OVCAR-8): > 100 µM (inactive)
GI50 (UO-31): 61.9 µM (inactive)
GI50 (HCC 2998): > 100 µM (inactive)
GI50 (EKVX): > 100 µM (inactive)
GI50 (LOX IMVI): 52.1 µM (inactive)
GI50 (KM12): 56.2 µM (inactive)
GI50 (SK-MEL-2): > 100 µM (inactive)
GI50 (IGROV-1): > 100 µM (inactive)
GI50 (HCT-15): 82.6 µM
GI50 (BT-549): 58.1 µM (inactive)
GI50 (UACC-257): > 100 µM (inactive)
GI50 (RPMI-8226): 44.3 µM (inactive)
GI50 (OVCAR-4): 81.8 µM (inactive)
GI50 (M14): > 100 µM (inactive)
GI50 (SF-295): > 100 µM (inactive)
GI50 (MDA-MB-435): > 100 µM (inactive)
GI50 (OVCAR-3): 28.1 µM (inactive)
GI50 (TK-10): 82.2 µM (inactive)
GI50 (HT-29): 90.4 µM (inactive)
GI50 (NCI-H23): > 100 µM (inactive)
GI50 (SN12C): 93.1 µM (inactive)
GI50 (MDA-N): > 100 µM (inactive)
